Columns and labels:
MM117 = assay: Cell viability assay (PrestoBlue), 72h; settings: Homo sapiens
Protocol: (§1) Cells were grown at 37°C in 5% CO2 (10% for Hermes 3A) and were regularly checked for mycoplasma contamination. […] Melanoma cell lines 501mel and SKmel28 were grown in RPMI w/o HEPES (Gibco, Invitrogen) supplemented with 10% FCS and gentamycin. Vemurafenib-resistant cells (501melVemuR and MM074VemuR) were additionally supplemented with 1.5 µM of vemurafenib. Melanoma IGR cell lines (IGR37 and IGR39) were grown in RPMI w/o HEPES (Gibco, Invitrogen) supplemented with 15% FCS and gentamycin.
(§2) To determine the IC50 (half maximal inhibitory concentration) of these cells to various inhibitors, cell viability assays were performed.
(§3) After 72h of treatment with different concentrations of the compounds, cells were treated with PrestoBlue reagent according to the manufacturer's instructions. The absorbance per well was measured with a Cellinsight CX5 microplate reader. Data were analyzed using Prism9 statistical software.

MM029 = assay: Cell viability assay (PrestoBlue), 72h; settings: Homo sapiens
Protocol: (§4) Cells were grown at 37°C in 5% CO2 (10% for Hermes 3A) and were regularly checked for mycoplasma contamination. […] Melanoma IGR cell lines (IGR37 and IGR39) were grown in RPMI w/o HEPES (Gibco, Invitrogen) supplemented with 15% FCS and gentamycin.
as §2, §3

melanoma cells 501mel = assay: Cell cycle analysis by flow cytometry (PI); assay type: cell-based, human; settings: IC50 concentrations
Protocol: For cell cycle analysis, 2×10^6 cells were seeded in 6 well plates. […] After 2 washes with cold PBS, cells were incubated with RNAse A and PI for 1h in the dark, before being analyzed on a BD LSRFortessaTM Flow Cytometer. Data were analysed with FlowJo software.

MM099 = assay: Cell viability assay (PrestoBlue), 72h; settings: Homo sapiens
Protocol: as §4, §2, §3

[1] = test system: RPB1 (RNA pol II elongation subunit); assay: Immunoblotting of RPB1 in 501mel; assay type: cell-based, human; settings: 24h at 5×IC50
Protocol: Cells were washed once with cold PBS, rinsed with a cell scraper, pelleted and resuspended in LSDB 0.5M buffer (0.5M KCI, 50mM Tris HCl pH 7.9, 20% Glycerol, 1% NP40, 1mM DTT, PIC). Afterwards cells were fully disrupted with 3 cycles of heat shock in liquid nitrogen and 37°C water bath and centrifugated 15min at 14,000rpm to pellet cell debris. Ten micrograms of extract were loaded on SDS-PAGE before transfer to nitro-cellulose membranes and immunoblotting.

IGR37 = assay: Cell viability assay (PrestoBlue), 72h; settings: Homo sapiens, IGR-37, 72 h
Protocol: as §1, §2, §3

MM074 = assay: Cell viability assay (PrestoBlue), 72h; settings: Homo sapiens
Protocol: as §1, §2, §3

MM074 melanospheres = assay: Melanosphere viability (CellTiterGlo); assay type: cell-based, human; settings: 72h, doses equivalent to 5×IC50
Protocol: MM074 proliferative/differentiated cell line were seeded (5×10^4 cells) in ultra-low attachment hydrogel-layered 96 well plates in KO DMEM medium supplemented with 20% KSR, AANE, 2 mM Glutamax, Penicillin/Streptomycin and 100 uM Beta-mercaptoethanol. To allow for melanosphere formation, cells were left to grow for 4 days before drug treatment.
To analyze melanosphere viability after drug treatment, cells were treated with CellTiterGlo reagent (Promega) according to the manufacturer's instructions. Luminescence signals were measured with a Centro XS LB 960 microplate reader (Berthold).

MM074 and MM029 cells = settings: MM074 and MM029, 10×IC50 for 8h
Protocol: Purified RNA was subjected to library preparation and high throughput sequencing on Illumina NovaSeq as signal-read 50 base reads following manufacturer's instructions. Sequenced samples were analyzed using nf-core RNAseq pipeline v1.3, quality controlled, trimmed, and aligned to the reference human genome using HISAT2. The identification and quantification of transcripts were performed using feature Counts from subread package. Differential expressed gene (DEG) analysis were done using DeSeq2.

SMILES | IC50 (MM117) [nM] | IC50 (MM029) [nM] | cell cycle progression (melanoma cells 501mel) | IC50 (MM099) [nM] | RPB1 (RNA pol II elongation subunit) degradation [1] | IC50 (IGR37) [nM] | IC50 (MM074) [nM] | cell viability in 3D culture (MM074 melanospheres) | transcriptional effects compared to lurbinectedin (MM074 and MM029 cells)
COc1c(C)cc2c(c1O)[C@@H]1[C@@H]3[C@@H]4SC[C@]5(N[C@H](CO)Cc6c5[nH]c5ccccc65)C(=O)OC[C@@H](c5c6c(c(C)c(OC(C)=O)c54)OCO6)N3[C@@H](O)[C@H](C2)N1C [PM14, ecubectedin] | 0.72 | 1.4 | notable blockade | 1.41 | pronounced | 1.05 | 1.15 | significant cytotoxic effects | –
COc1c(C)cc2c(c1O)[C@@H]1[C@@H]3[C@@H]4SC[C@]5(N[C@H](CO)Cc6c5oc5ccccc65)C(=O)OC[C@@H](c5c6c(c(C)c(OC(C)=O)c54)OCO6)N3[C@@H](O)[C@H](C2)N1C [Compound IA] | 1.16 | 4.73 | notable blockade | 1.85 | pronounced | 1.48 | 3.81 | significant cytotoxic effects | dissimilar and fewer genes being deregulated

From patent EP4563149A1, “LURBINECTEDIN, ECUBECTEDIN AND A RELATED COMPOUND FOR USE IN THE TREATMENT OF SKIN CANCERS” (Pharma Mar, S.A., priority 2023, dated 2025)
